Laboratory results as given in ChEMBL document CHEMBL1124698, “Squalene analogues containing isopropylidene mimics as potential inhibitors of pig liver squalene epoxidase and oxidosqualene cyclase” (J Med Chem, 1989).

What was measured:
[1] = target: T1, Lanosterol synthase (Rattus norvegicus, UniProt P48450); assay: Inhibitory activity against Oxidosqualene-lanosterol cyclase in pig liver; NI-No inhibitory effect at 400 uM; set-up: species or system Sus scrofa; details: target entry is the homologue from another species
T1 sequence (P48450 whole entry): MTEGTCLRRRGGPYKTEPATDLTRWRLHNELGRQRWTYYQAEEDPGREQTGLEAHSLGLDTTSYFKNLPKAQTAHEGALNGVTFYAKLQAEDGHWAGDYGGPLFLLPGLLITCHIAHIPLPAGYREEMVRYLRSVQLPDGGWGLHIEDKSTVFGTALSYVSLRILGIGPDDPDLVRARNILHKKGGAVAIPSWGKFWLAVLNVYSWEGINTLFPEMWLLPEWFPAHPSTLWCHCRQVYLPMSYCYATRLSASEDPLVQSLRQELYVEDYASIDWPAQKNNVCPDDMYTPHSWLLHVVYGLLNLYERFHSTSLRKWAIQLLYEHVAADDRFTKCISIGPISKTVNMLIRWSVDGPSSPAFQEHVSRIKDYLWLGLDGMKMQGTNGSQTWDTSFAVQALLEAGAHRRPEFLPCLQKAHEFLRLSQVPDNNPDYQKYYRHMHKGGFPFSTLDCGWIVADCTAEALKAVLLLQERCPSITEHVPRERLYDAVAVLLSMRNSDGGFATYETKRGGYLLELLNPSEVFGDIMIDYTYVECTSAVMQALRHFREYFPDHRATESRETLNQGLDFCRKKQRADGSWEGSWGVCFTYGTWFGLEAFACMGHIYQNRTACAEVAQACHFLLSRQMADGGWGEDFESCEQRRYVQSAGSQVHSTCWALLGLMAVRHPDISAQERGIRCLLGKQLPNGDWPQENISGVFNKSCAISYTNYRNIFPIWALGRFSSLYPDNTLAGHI

[2] = target: Squalene monooxygenase (Homo sapiens, UniProt Q14534); assay: Inhibitory activity against Squalene Epoxidase in pig liver; NI-No inhibitory effect at 400 uM; set-up: species or system Sus scrofa; details: target entry is the homologue from another species
Squalene monooxygenase, sequence (Q14534 whole entry): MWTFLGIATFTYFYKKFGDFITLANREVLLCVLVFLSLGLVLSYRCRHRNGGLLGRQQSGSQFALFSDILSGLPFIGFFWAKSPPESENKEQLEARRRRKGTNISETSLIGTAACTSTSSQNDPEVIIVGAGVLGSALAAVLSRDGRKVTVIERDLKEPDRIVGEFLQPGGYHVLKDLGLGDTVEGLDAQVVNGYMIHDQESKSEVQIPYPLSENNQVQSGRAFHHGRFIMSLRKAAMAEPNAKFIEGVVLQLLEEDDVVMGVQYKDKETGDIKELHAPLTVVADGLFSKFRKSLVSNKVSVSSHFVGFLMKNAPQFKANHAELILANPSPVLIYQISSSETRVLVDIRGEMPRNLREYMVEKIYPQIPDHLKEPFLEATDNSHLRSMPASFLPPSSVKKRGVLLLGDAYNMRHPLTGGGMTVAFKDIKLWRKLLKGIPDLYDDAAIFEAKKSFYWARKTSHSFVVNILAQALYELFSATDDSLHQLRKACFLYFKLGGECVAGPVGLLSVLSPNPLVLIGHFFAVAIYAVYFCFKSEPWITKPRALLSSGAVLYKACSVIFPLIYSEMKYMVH

| IC50 [1] | IC50 [2] | Structure (SMILES) |
| --- | --- | --- |
| No inhibition | No inhibition | C=C=CCC/C(C)=C/CC/C(C)=C/CC/C=C(\C)CC/C=C(\C)CCC=C(C)C |
|  | No inhibition | C#CCC/C(C)=C/CC/C(C)=C/CC/C=C(\C)CC/C=C(\C)CCC=C(C)C |
